What all share (assay): growth of human tumour cells (NCI), 48 h
For experiment [1], the system named is UACC-62 melanoma.
Experiment [2] concerns SK-MEL-5 melanoma.
The test system of experiment [3] is OVCAR-4 ovarian.
Experiment [4] has as its system EKVX NSCLC.
Experiment [5] deals with M14 melanoma.
Experiment [6] concerns A549 NSCLC.
The test system of experiment [7] is SNB-19 CNS.
Experiment [8] relates to OVCAR-8 ovarian.
Experiment [9] concerns HOP-92 NSCLC.
The subject of experiment [10] is NCI-H23 lung.

TGI and GI50 data for 16 compounds are collected here from PubChem BioAssay (NCI).

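1) Cells in 96-well plates. 2) Compound, 48 h, 5 concentrations. 3) Linear interpolation between surrounding doses. 4) Unreached endpoint = highest concentration. GI50 marks 50% less growth. Definition used: TGI = concentration required for complete inhibition of growth.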

For the compound `CNS(=O)(=O)NNS(=O)(=O)c1ccc(Cl)cc1`, the TGI in experiment [1], in [2], in experiment [3], in [4], in experiment [5] and in experiment [6] was greater than 100 µM in each case. Moreover, the TGI in experiment [7], in [8], in experiment [9] and in experiment [10] was greater than 100 µM each time.

Consider `CN(CC(N)=O)C(=O)N(CCCl)N=O`, for which the TGI in experiment [1], in experiment [2], in experiment [3], in experiment [4], in experiment [5] and in experiment [6] was greater than 100 µM throughout. For the same compound, the TGI in experiment [7], in [8], in experiment [9] and in [10] was greater than 100 µM throughout.

Consider `C#CCOc1cccc(Nc2ncnc3c(NC(=O)CCl)cccc23)c1`, for which the GI50 is 27 µM in [1]; 14 µM in [2]; 37.1 µM in experiment [3]; 20 µM in experiment [4]; 18.2 µM in experiment [5]; 22.1 µM in experiment [6]. For the same compound, the GI50 in experiment [7] was 33.9 µM; in experiment [8], 31.6 µM; in experiment [9], 17 µM; in [10], 18.3 µM. Also, the TGI was greater than 100 µM in experiment [1]; 27.2 µM in experiment [2]; greater than 100 µM in experiment [3]; 54.1 µM in [4]; 54.5 µM in experiment [5]; 49.9 µM in experiment [6]. The TGI in experiment [7] was greater than 100 µM; in experiment [8], greater than 100 µM; in experiment [9], 33.8 µM; in experiment [10], 47.9 µM.

In the case of `O=C(O)/C(Cl)=C(\Cl)C(=O)Nc1ccc(Cl)c(Cl)c1Cl`, the TGI in [1] came to 26.1 µM; in experiment [2], 68.9 µM; in experiment [3] it was 33.6 µM; in experiment [4] it was 37.1 µM; in experiment [5], 32.5 µM; in experiment [6], 35.2 µM. Further, the results for the TGI in experiment [7], in experiment [9] and in experiment [10] were 30.2 µM, 31.1 µM and 33.2 µM, respectively.

`COC(=O)C(C)(C)N=CN(C)C`: the TGI in [1], in experiment [2], in experiment [3], in experiment [4], in experiment [5] and in [6] was greater than 100 µM in each case. Besides, the TGI in experiment [7], in experiment [8], in experiment [9] and in experiment [10] was greater than 100 µM each time.

`CCN1C(=O)N(CC)C2C1NN=c1s/c(=C3\C(=O)N(CCc4ccccc4)c4ccccc43)c(=O)n12` (configuration not stated): the GI50 in experiment [1] was 0.637 µM; in experiment [2] it was 0.305 µM; in [3], 1.13 µM; in [4], 0.641 µM; in experiment [5], 0.478 µM; in experiment [6] it was 0.638 µM. Moreover, the GI50 is 0.845 µM in [7], 0.74 µM in experiment [8], 2.55 µM in [9] and 0.794 µM in [10]. For the same compound, the TGI in experiment [1] was 11.5 µM; in [2], 1.23 µM; in experiment [3] it was greater than 100 µM; in [4] it was greater than 100 µM; in experiment [5], 12.5 µM; in [6], greater than 39.5 µM. Also, the TGI in [7] is 19.6 µM; in experiment [8] it was greater than 43.1 µM; in experiment [9], 15.6 µM; in experiment [10] it was 14.3 µM.

As to `O=C(O)COc1c(Cl)cc(Cl)c2cccnc12`, the TGI in experiment [1], in experiment [2], in experiment [3], in experiment [4], in experiment [5] and in experiment [6] was greater than 100 µM throughout. The TGI in experiment [7], in experiment [8], in experiment [9] and in [10] was greater than 100 µM in each case.

Consider `CC1CN1c1c(C(=O)/C=C/c2ccccc2)c(-c2ccccc2)nn(C)c1=O` (configuration not stated), for which the TGI in experiment [1] worked out at 36.6 µM; in experiment [2], 29.4 µM; in [3], 31.9 µM; in [4], 48.2 µM; in experiment [5], 32.8 µM; in experiment [6], 70.5 µM. For the same compound, the TGI was 50.2 µM in [7], 41 µM in experiment [8], 46.7 µM in experiment [9] and 31.8 µM in experiment [10].

In the case of `CCCCCn1sc(=O)n(Cc2ccc(CNC(=O)OCc3ccc4cccc(O)c4n3)cc2)c1=O`, the GI50 was 1.51 µM in experiment [1]; 1.69 µM in [2]; 1.67 µM in experiment [3]; 2.01 µM in experiment [4]; 1.33 µM in [5]; 2.12 µM in [6]. In addition, the GI50 was 4.44 µM in [7], 1.85 µM in experiment [8], 1.21 µM in experiment [9] and 1.67 µM in experiment [10]. For the same compound, the TGI was found to be 2.87 µM in experiment [1]; 3.07 µM in experiment [2]; 3.21 µM in experiment [3]; 5.41 µM in experiment [4]; 3.12 µM in [5]; 5.57 µM in experiment [6]. For the same compound, the TGI in experiment [7] turned out to be 16.7 µM; in experiment [8], 9.89 µM; in experiment [9], 2.97 µM; in experiment [10], 3.59 µM.

As for `COc1ccc(OC)c(C2SCC(=O)N2NC(=O)C(O)c2ccccc2)c1` (configuration not stated), the GI50 in experiment [1], in experiment [2], in [3], in [4], in [5] and in experiment [6] was greater than 100 µM throughout. Besides, the GI50 in experiment [7], in [8], in experiment [9] and in [10] was greater than 100 µM in each case. In addition, the TGI in [1], in experiment [2], in experiment [3], in experiment [4], in [5] and in [6] was greater than 100 µM throughout. The TGI in [7], in experiment [8], in [9] and in [10] was greater than 100 µM in each case.

For `N/N=C1\CC(=O)NC(=O)N1`, the TGI in experiment [1], in experiment [2], in experiment [3], in experiment [4], in [5] and in [6] was greater than 100 µM in each case. The TGI in experiment [7], in experiment [8], in [9] and in experiment [10] was greater than 100 µM each time.

For the compound `CCCCCCN(N)C(=O)CC#N`, the TGI in experiment [1], in experiment [2], in experiment [3], in experiment [4], in experiment [5] and in experiment [6] was greater than 100 µM in each case. Moreover, the TGI in experiment [8], in experiment [9] and in experiment [10] was greater than 100 µM in each case.

`CN1CCN(CC(O)COc2c(Br)c(Br)c(Br)c3c2OC(C)(C)C3)CC1` (configuration not stated): the GI50 in experiment [1] is 1.83 µM; in experiment [2], 1.83 µM; in experiment [3], 13.7 µM; in experiment [4], 5.21 µM; in [6] it was 10.6 µM; in experiment [7] it was 12.7 µM. Also, the figures for the GI50 in experiment [8], in experiment [9] and in experiment [10] were 10.3 µM, 3.1 µM and 14 µM, respectively. Also, the TGI in [1] came to 3.29 µM; in experiment [2], 3.27 µM; in experiment [3] it was 35.1 µM; in experiment [4], 19.7 µM; in experiment [6], 30.4 µM; in [7], 42.9 µM. The TGI in experiment [8] was 42.2 µM; in [9] it was 12.2 µM; in [10] it was 34.1 µM.

Regarding `CCOC1=C2N=C(Cc3ccccc3F)N=C2C(=O)c2ccccc21`, the TGI in experiment [1], in [3], in experiment [4], in experiment [5], in [6] and in [7] was greater than 100 µM in each case. Besides, the TGI in experiment [8], in experiment [9] and in [10] was greater than 100 µM throughout.

On to `CCO/C=C1\N=C(c2ccccc2Br)OC1=O`, for which the TGI in [1], in [3], in [4], in [5], in experiment [6] and in [7] was greater than 100 µM each time. For the same compound, the TGI in [8], in [9] and in experiment [10] was greater than 100 µM each time.

For the compound `COc1cc2c(c(OC)c1OC)-c1ccc(SC)c(=O)cc1[C@@H](NC1OC(CO)C(O)C(O)C1O)CC2` (some centres not stated), the GI50 is 0.0549 µM in experiment [1]; 0.0288 µM in [2]; 0.226 µM in [3]; 0.0311 µM in [5]; 0.0385 µM in [6]; 0.0797 µM in experiment [7]. Moreover, the GI50 in experiment [8] was 0.0387 µM; in experiment [9] it was 0.0373 µM; in experiment [10] it was 0.0568 µM. The TGI in experiment [1] is greater than 100 µM; in experiment [2], 0.195 µM; in experiment [3] it was greater than 100 µM; in [5], greater than 100 µM; in experiment [6], greater than 100 µM; in experiment [7], greater than 100 µM. For the same compound, the results for the TGI in [8], in [9] and in [10] were greater than 100 µM, greater than 57.9 µM and greater than 100 µM, respectively.
